Laboratory results published in patent publication US11542235B2, “Herbicidal 3-azaspiro[5.5] undecane-8, 10-dione compounds” (SYNGENTA PARTICIPATIONS AG, priority 2018, dated 2023).

Assays:
Assay type in all cases: in vivo
Lolium perenne (LOLPE) = experiment: Glasshouse herbicidal test, pre- and post-emergence, Lolium perenne; settings: 250 g/h, evaluated after 13 days, five point scale; for percentage damage caused to the plant, LOLPE POST: post-emergence; for percentage damage caused to the plant, LOLPE PRE: pre-emergence
Protocol: (§1) Seeds of a variety of test species are sown in standard soil in pots (Lolium perenne (LOLPE), Setaria faberi (SETFA), Alopecurus myosuroides (ALOMY), Echinochloa crus-galli (ECHCG), Avena fatua (AVEFA)). After cultivation for one day (pre-emergence) or after 8 days cultivation (post-emergence) under controlled conditions in a glasshouse (at 24/16° C., day/night; 14 hours light; 65% humidity), the plants are sprayed with an aqueous spray solution derived from the formulation of the technical active ingredient in acetone/water (50:50) solution containing 0.5% Tween 20 (polyoxyethelyene sorbitan monolaurate, CAS RN 9005-64-5). Compounds are applied at […]. The test plants are then grown in a glasshouse under controlled conditions in a glasshouse (at 24/16° C., day/night; 14 hours light; 65% humidity) and watered twice daily. After 13 days for pre and post-emergence, the test is evaluated for the percentage damage caused to the plant. The biological activities are shown in the following table on a five point scale (5=80-100%; 4=60-79%; 3=40-59%; 2=20-39%; 1=0-19%).

Avena fatua (AVEFA) = experiment: Glasshouse herbicidal test, pre- and post-emergence, Avena fatua; settings: 250 g/h, evaluated after 13 days, five point scale; for percentage damage caused to the plant, AVEFA POST: post-emergence; for percentage damage caused to the plant, AVEFA PRE: pre-emergence
Protocol: as §1

[1] = test system: Echinochloa crus-galli (ECHCG); experiment: Glasshouse herbicidal test, pre- and post-emergence, Echinochloa crus-galli; settings: 250 g/h, evaluated after 13 days, five point scale; for percentage damage caused to the plant, ECHCG POST: post-emergence; for percentage damage caused to the plant, ECHCG PRE: pre-emergence
Protocol: as §1

[2] = test system: Alopecurus myosuroides (ALOMY); experiment: Glasshouse herbicidal test, pre- and post-emergence, Alopecurus myosuroides; settings: 250 g/h, evaluated after 13 days, five point scale; for percentage damage caused to the plant, ALOMY POST: post-emergence; for percentage damage caused to the plant, ALOMY PRE: pre-emergence
Protocol: as §1

Setaria faberi (SETFA) = experiment: Glasshouse herbicidal test, pre- and post-emergence, Setaria faberi; settings: 250 g/h, evaluated after 13 days, five point scale; for percentage damage caused to the plant, SETFA POST: post-emergence; for percentage damage caused to the plant, SETFA PRE: pre-emergence
Protocol: as §1

CC#Cc1cc(C)c(C2=C(OC(=O)C(C)(C)C)CC3(CCN(C(C)=O)CC3)CC2=O)c(C)c1 [Compound P11]
5 (5=80-100%): percentage damage caused to the plant, LOLPE POST (Lolium perenne (LOLPE)) | percentage damage caused to the plant, LOLPE PRE (Lolium perenne (LOLPE)) | percentage damage caused to the plant, AVEFA POST (Avena fatua (AVEFA)) | percentage damage caused to the plant, AVEFA PRE (Avena fatua (AVEFA)) | percentage damage caused to the plant, ECHCG POST [1] | percentage damage caused to the plant, ECHCG PRE [1] | percentage damage caused to the plant, ALOMY POST [2] | percentage damage caused to the plant, ALOMY PRE [2] | percentage damage caused to the plant, SETFA POST (Setaria faberi (SETFA)) | percentage damage caused to the plant, SETFA PRE (Setaria faberi (SETFA))

CC#Cc1cc(C)c(C2=C(OC(=O)C(C)(C)C)CC3(CCN(OC)CC3)CC2=O)c(C)c1 [Compound P1]
5 (5=80-100%): percentage damage caused to the plant, LOLPE POST (Lolium perenne (LOLPE)) | percentage damage caused to the plant, LOLPE PRE (Lolium perenne (LOLPE)) | percentage damage caused to the plant, AVEFA POST (Avena fatua (AVEFA)) | percentage damage caused to the plant, AVEFA PRE (Avena fatua (AVEFA)) | percentage damage caused to the plant, ECHCG POST [1] | percentage damage caused to the plant, ECHCG PRE [1] | percentage damage caused to the plant, ALOMY POST [2] | percentage damage caused to the plant, ALOMY PRE [2] | percentage damage caused to the plant, SETFA POST (Setaria faberi (SETFA)) | percentage damage caused to the plant, SETFA PRE (Setaria faberi (SETFA))

CC#Cc1cc(C)c(C2C(=O)CC3(CCN(C(=O)C(F)(F)F)CC3)CC2=O)c(C)c1 [Compound A5]
5 (5=80-100%): percentage damage caused to the plant, LOLPE POST (Lolium perenne (LOLPE)) | percentage damage caused to the plant, LOLPE PRE (Lolium perenne (LOLPE)) | percentage damage caused to the plant, AVEFA POST (Avena fatua (AVEFA)) | percentage damage caused to the plant, AVEFA PRE (Avena fatua (AVEFA)) | percentage damage caused to the plant, ECHCG POST [1] | percentage damage caused to the plant, ECHCG PRE [1] | percentage damage caused to the plant, ALOMY POST [2] | percentage damage caused to the plant, ALOMY PRE [2] | percentage damage caused to the plant, SETFA POST (Setaria faberi (SETFA)) | percentage damage caused to the plant, SETFA PRE (Setaria faberi (SETFA))

CC#Cc1cc(C)c(C2=C(OC(=O)OC)CC3(CCN(C(=O)C(F)F)CC3)CC2=O)c(C)c1 [Compound P16]
5 (5=80-100%): percentage damage caused to the plant, LOLPE POST (Lolium perenne (LOLPE)) | percentage damage caused to the plant, LOLPE PRE (Lolium perenne (LOLPE)) | percentage damage caused to the plant, AVEFA POST (Avena fatua (AVEFA)) | percentage damage caused to the plant, AVEFA PRE (Avena fatua (AVEFA)) | percentage damage caused to the plant, ECHCG POST [1] | percentage damage caused to the plant, ECHCG PRE [1] | percentage damage caused to the plant, ALOMY POST [2] | percentage damage caused to the plant, ALOMY PRE [2] | percentage damage caused to the plant, SETFA POST (Setaria faberi (SETFA)) | percentage damage caused to the plant, SETFA PRE (Setaria faberi (SETFA))

CC#Cc1cc(C)c(C2C(=O)CC3(CCN(OC)CC3)CC2=O)c(C)c1 [Compound A8]
5 (5=80-100%): percentage damage caused to the plant, LOLPE POST (Lolium perenne (LOLPE)) | percentage damage caused to the plant, LOLPE PRE (Lolium perenne (LOLPE)) | percentage damage caused to the plant, AVEFA POST (Avena fatua (AVEFA)) | percentage damage caused to the plant, AVEFA PRE (Avena fatua (AVEFA)) | percentage damage caused to the plant, ECHCG POST [1] | percentage damage caused to the plant, ECHCG PRE [1] | percentage damage caused to the plant, ALOMY POST [2] | percentage damage caused to the plant, ALOMY PRE [2] | percentage damage caused to the plant, SETFA POST (Setaria faberi (SETFA)) | percentage damage caused to the plant, SETFA PRE (Setaria faberi (SETFA))

CC#Cc1cc(C)c(C2C(=O)CC3(CCN(C(=O)C(C)(C)C)CC3)CC2=O)c(C)c1 [Compound A12]
5 (5=80-100%): percentage damage caused to the plant, LOLPE POST (Lolium perenne (LOLPE)) | percentage damage caused to the plant, LOLPE PRE (Lolium perenne (LOLPE)) | percentage damage caused to the plant, AVEFA POST (Avena fatua (AVEFA)) | percentage damage caused to the plant, AVEFA PRE (Avena fatua (AVEFA)) | percentage damage caused to the plant, ECHCG POST [1] | percentage damage caused to the plant, ECHCG PRE [1] | percentage damage caused to the plant, ALOMY POST [2] | percentage damage caused to the plant, ALOMY PRE [2] | percentage damage caused to the plant, SETFA POST (Setaria faberi (SETFA)) | percentage damage caused to the plant, SETFA PRE (Setaria faberi (SETFA))

CC#Cc1cc(C)c(C2=C(OC(=O)C3CC3)CC3(CCN(C(C)=O)CC3)CC2=O)c(C)c1 [Compound P15]
5 (5=80-100%): percentage damage caused to the plant, LOLPE POST (Lolium perenne (LOLPE)) | percentage damage caused to the plant, LOLPE PRE (Lolium perenne (LOLPE)) | percentage damage caused to the plant, AVEFA POST (Avena fatua (AVEFA)) | percentage damage caused to the plant, AVEFA PRE (Avena fatua (AVEFA)) | percentage damage caused to the plant, ECHCG POST [1] | percentage damage caused to the plant, ECHCG PRE [1] | percentage damage caused to the plant, ALOMY POST [2] | percentage damage caused to the plant, ALOMY PRE [2] | percentage damage caused to the plant, SETFA POST (Setaria faberi (SETFA)) | percentage damage caused to the plant, SETFA PRE (Setaria faberi (SETFA))
